Source: PubChem BioAssay (NCI)
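Growth conditions: 96-well plates. Treatment: test compound, 48 hours, 5 concentrations. Analysis: linear interpolation between bracketing concentrations; unreached endpoints set to highest concentration. Abbreviation: GI50, concentration required for 50% inhibition of growth. At the TGI there is no net growth.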

Key:
Test in all cases: inhibition of tumour cell growth, NCI panel, 48 h
786-0 renal = test system: 786-0 renal
A498 renal = test system: A498 renal
A549 NSCLC = test system: A549 NSCLC
ACHN renal = test system: ACHN renal
BT-549 breast = test system: BT-549 breast
CAKI-1 renal = test system: CAKI-1 renal
CCRF-CEM leukemia = test system: CCRF-CEM leukemia
COLO 205 colon = test system: COLO 205 colon
DU-145 prostate = test system: DU-145 prostate
EKVX NSCLC = test system: EKVX NSCLC
HCC-2998 colon = test system: HCC-2998 colon
HCT-116 colon = test system: HCT-116 colon
HCT-15 colon = test system: HCT-15 colon
HL-60(TB) leukemia = test system: HL-60(TB) leukemia
HOP-92 NSCLC = test system: HOP-92 NSCLC
HS 578T breast = test system: HS 578T breast
HT29 colon = test system: HT29 colon
IGROV1 ovarian = test system: IGROV1 ovarian
K-562 leukemia = test system: K-562 leukemia
KM12 colon = test system: KM12 colon
LOX IMVI melanoma = test system: LOX IMVI melanoma
M14 melanoma = test system: M14 melanoma
MALME-3M melanoma = test system: MALME-3M melanoma
MCF7 breast = test system: MCF7 breast
MDA-MB-231 breast = test system: MDA-MB-231 breast
MDA-MB-435 = test system: MDA-MB-435
MOLT-4 leukemia = test system: MOLT-4 leukemia
NCI-H226 lung = test system: NCI-H226 lung
NCI-H23 lung = test system: NCI-H23 lung
NCI-H460 lung = test system: NCI-H460 lung
NCI-H522 lung = test system: NCI-H522 lung
NCI/ADR-RES ovarian = test system: NCI/ADR-RES ovarian
OVCAR-3 ovarian = test system: OVCAR-3 ovarian
OVCAR-4 ovarian = test system: OVCAR-4 ovarian
OVCAR-5 ovarian = test system: OVCAR-5 ovarian
OVCAR-8 ovarian = test system: OVCAR-8 ovarian
PC-3 prostate = test system: PC-3 prostate
RPMI-8226 leukemia = test system: RPMI-8226 leukemia
RXF 393 renal = test system: RXF 393 renal
SF-268 CNS = test system: SF-268 CNS
SF-295 CNS = test system: SF-295 CNS
SF-539 CNS = test system: SF-539 CNS
SK-MEL-2 melanoma = test system: SK-MEL-2 melanoma
SK-MEL-28 melanoma = test system: SK-MEL-28 melanoma
SK-MEL-5 melanoma = test system: SK-MEL-5 melanoma
SK-OV-3 ovarian = test system: SK-OV-3 ovarian
SN12C renal = test system: SN12C renal
SNB-19 CNS = test system: SNB-19 CNS
SNB-75 CNS = test system: SNB-75 CNS
SR leukemia = test system: SR leukemia
T-47D breast = test system: T-47D breast
TK-10 renal = test system: TK-10 renal
U251 CNS = test system: U251 CNS
UACC-257 melanoma = test system: UACC-257 melanoma
UACC-62 melanoma = test system: UACC-62 melanoma
UO-31 renal = test system: UO-31 renal

Structure (SMILES): O=Nc1c(-c2c(O)[nH]c3cc(Br)ccc23)[nH]c2ccccc12
- GI50 (786-0 renal): 1220 nM
- TGI (786-0 renal): 4400 nM
- GI50 (A498 renal): 416 nM
- TGI (A498 renal): 1830 nM
- GI50 (A549 NSCLC): 1060 nM
- TGI (A549 NSCLC): 4890 nM
- GI50 (ACHN renal): 519 nM
- TGI (ACHN renal): 1910 nM
- GI50 (BT-549 breast): 716 nM
- TGI (BT-549 breast): 2790 nM
- GI50 (CAKI-1 renal): 109 nM
- TGI (CAKI-1 renal): 1450 nM
- GI50 (CCRF-CEM leukemia): 2530 nM
- TGI (CCRF-CEM leukemia): > 100000 nM
- GI50 (COLO 205 colon): 1350 nM
- TGI (COLO 205 colon): 2840 nM
- GI50 (DU-145 prostate): 1230 nM
- TGI (DU-145 prostate): 2560 nM
- GI50 (EKVX NSCLC): 1300 nM
- TGI (EKVX NSCLC): 3220 nM
- GI50 (HCC-2998 colon): 1600 nM
- TGI (HCC-2998 colon): 3080 nM
- GI50 (HCT-116 colon): 883 nM
- TGI (HCT-116 colon): 2270 nM
- GI50 (HCT-15 colon): 963 nM
- TGI (HCT-15 colon): 3100 nM
- GI50 (HL-60(TB) leukemia): 2750 nM
- TGI (HL-60(TB) leukemia): > 32300 nM
- GI50 (HOP-92 NSCLC): 1970 nM
- TGI (HOP-92 NSCLC): 7290 nM
- GI50 (HS 578T breast): 239 nM
- TGI (HS 578T breast): 7140 nM
- GI50 (HT29 colon): 1670 nM
- TGI (HT29 colon): 3440 nM
- GI50 (IGROV1 ovarian): 140 nM
- TGI (IGROV1 ovarian): 2100 nM
- GI50 (K-562 leukemia): 1190 nM
- TGI (K-562 leukemia): > 100000 nM
- GI50 (KM12 colon): 471 nM
- TGI (KM12 colon): 1940 nM
- GI50 (LOX IMVI melanoma): 1100 nM
- TGI (LOX IMVI melanoma): 2550 nM
- GI50 (M14 melanoma): 1760 nM
- TGI (M14 melanoma): 3480 nM
- GI50 (MALME-3M melanoma): 2350 nM
- TGI (MALME-3M melanoma): 6440 nM
- GI50 (MCF7 breast): 1830 nM
- TGI (MCF7 breast): 7790 nM
- GI50 (MDA-MB-231 breast): 1820 nM
- TGI (MDA-MB-231 breast): 5310 nM
- GI50 (MDA-MB-435): 1610 nM
- TGI (MDA-MB-435): 3010 nM
- GI50 (MOLT-4 leukemia): 2990 nM
- TGI (MOLT-4 leukemia): > 100000 nM
- GI50 (NCI-H226 lung): 932 nM
- TGI (NCI-H226 lung): 3490 nM
- GI50 (NCI-H23 lung): 1630 nM
- TGI (NCI-H23 lung): 4280 nM
- GI50 (NCI-H460 lung): 1290 nM
- TGI (NCI-H460 lung): 7570 nM
- GI50 (NCI-H522 lung): 1100 nM
- TGI (NCI-H522 lung): 4540 nM
- GI50 (NCI/ADR-RES ovarian): 1420 nM
- TGI (NCI/ADR-RES ovarian): 4480 nM
- GI50 (OVCAR-3 ovarian): 648 nM
- TGI (OVCAR-3 ovarian): 2240 nM
- GI50 (OVCAR-4 ovarian): 1230 nM
- TGI (OVCAR-4 ovarian): 5370 nM
- GI50 (OVCAR-5 ovarian): 2250 nM
- TGI (OVCAR-5 ovarian): 4350 nM
- GI50 (OVCAR-8 ovarian): 2320 nM
- TGI (OVCAR-8 ovarian): > 100000 nM
- GI50 (PC-3 prostate): 1200 nM
- GI50 (RPMI-8226 leukemia): 2040 nM
- TGI (RPMI-8226 leukemia): > 22500 nM
- GI50 (RXF 393 renal): 858 nM
- TGI (RXF 393 renal): 3420 nM
- GI50 (SF-268 CNS): 1520 nM
- TGI (SF-268 CNS): 3660 nM
- GI50 (SF-295 CNS): 1340 nM
- TGI (SF-295 CNS): 5570 nM
- GI50 (SF-539 CNS): 734 nM
- TGI (SF-539 CNS): 2880 nM
- GI50 (SK-MEL-2 melanoma): 1110 nM
- TGI (SK-MEL-2 melanoma): 3410 nM
- GI50 (SK-MEL-28 melanoma): 2370 nM
- TGI (SK-MEL-28 melanoma): 4790 nM
- GI50 (SK-MEL-5 melanoma): 723 nM
- TGI (SK-MEL-5 melanoma): 1990 nM
- GI50 (SK-OV-3 ovarian): 223 nM
- TGI (SK-OV-3 ovarian): 2940 nM
- GI50 (SN12C renal): 785 nM
- TGI (SN12C renal): 3860 nM
- GI50 (SNB-19 CNS): 5070 nM
- TGI (SNB-19 CNS): 16700 nM
- GI50 (SNB-75 CNS): 285 nM
- TGI (SNB-75 CNS): 2960 nM
- GI50 (SR leukemia): 3260 nM
- TGI (SR leukemia): 64200 nM
- GI50 (T-47D breast): 1980 nM
- TGI (T-47D breast): 5480 nM
- GI50 (TK-10 renal): 954 nM
- TGI (TK-10 renal): 5120 nM
- GI50 (U251 CNS): 1870 nM
- TGI (U251 CNS): 8520 nM
- GI50 (UACC-257 melanoma): 2050 nM
- TGI (UACC-257 melanoma): 3950 nM
- GI50 (UACC-62 melanoma): 1290 nM
- TGI (UACC-62 melanoma): 2950 nM
- GI50 (UO-31 renal): 334 nM
- TGI (UO-31 renal): 2030 nM
